Reference: patent US4254106A, “Biologically active amides” (priority 1976, dated 1981)
Structures can show the parent of a compound that is named as a salt. Non-standard residues stand in square brackets, D forms with d. Residues, ends and D or L forms follow the SMILES beside them.

Tested on: isolated mouse vas deferens
Type: cell-based
Conditions: for Relative Potency (Morphine): RP=antilog[logD50(morphine)-logD50(test compound)]; for IC50: dose giving the response halfway between maximum response and minimum contraction, pulses at 0.1 Hz, mean of generally at least two cumulative dose response curves, read-out: Mean D50
Protocol: The compounds were examined for their ability to inhibit neurally evoked contractions of the isolated mouse vas deferens preparation (method of Hughes et al, Brain Research, 88 (1975) 296, using pulses at 0.1 Hz).
The heights of the five contractions that immediately preceded the addition of the first "dose" of test compound were measured and their mean calculated. The resultant mean contraction associated with a particular bath concentration of test compound was calculated from the heights of the 6th, 7th, 8th, 9th and 10th contractions after the addition of the appropriate "dose" of test compound, i.e. the five contractions that immediately preceded the subsequent "dose" or washout.
The mean control contraction height and the concentration related mean contraction heights were used to compute the constants in an equation based on the Langmuir Adsorption Isotherm which defined the dose response curve: [formula] where y=contraction (mm)
For each test compound the D50 was calculated, defined as the dose giving the resonse that is halfway between the maximum response and the minimum contraction of the tissue.
Generally at least two cumulative dose response curves were constructed and a mean D50 calculated.

Structure (SMILES)	Relative Potency (Morphine)	IC50 [nM]	Reversal of the inhibition of contractions by naloxone
CSCC[C@H](NC(=O)[C@H](Cc1ccccc1)NC(=O)CNC(=O)[C@@H](C)NC(=O)[C@@H](N)Cc1ccc(O)cc1)C(=O)O [5(a), H.Tyr.D-Ala.Gly.Phe.Met.OH HCl]	229	2.03	
COC(=O)[C@H](CCSC)NC(=O)[C@H](Cc1ccccc1)NC(=O)CNC(=O)[C@@H](C)NC(=O)[C@@H](N)Cc1ccc(O)cc1 [5(b), H.Tyr.D-Ala.Gly.Phe.Met.OMe]	94	4.95	
CC(C)C[C@H](NC(=O)[C@H](Cc1ccccc1)NC(=O)CNC(=O)[C@@H](C)NC(=O)[C@@H](N)Cc1ccc(O)cc1)C(=O)O [Example 4, H.Tyr.D-Ala.Gly.Phe.Leu.OH HCl]	267	1.74	
CSCC[C@H](NC(=O)[C@H](Cc1ccccc1)NC(=O)CNC(=O)[C@@H](C)NC(=O)[C@@H](N)Cc1ccc(O)cc1)C(=O)N[C@H](C(=O)O)[C@@H](C)O [Example 14, H.Tyr.D-Ala.Gly.Phe.Met.Thr.OH HCl] (H-Y[dA]GFMT-OH)	229	2.03	
CN1CC[C@]23c4c5ccc(O)c4O[C@H]2[C@@H](O)C=C[C@H]3[C@H]1C5 [Morphine, reference compound]			Reversal of the inhibition of the contractions was effected
